According to patent US20050137166A1, “Use of cooling agents to relieve mild ocular irritation and enhance comfort” (Alcon, Inc., priority 2003, published 2005):

Columns and labels:
mouth = details: versus menthol; cited from earlier work
skin = details: versus menthol; cited from earlier work
eyes of human patients [1] = assay: Cooling sensation of compositions topically applied to the eyes of human patients; format: in vivo; details: for ability to produce a cooling sensation: human patients
Protocol: (§1) Compositions containing the cooling agents WS-3 and WS-23 in the vehicle described in Example 1 were prepared. The compositions were evaluated relative to the ability to produce a cooling sensation when topically applied to the eyes of human patients. The compositions were also evaluated with respect to the creation of ocular discomfort.

eyes of human patients [2] = assay: Creation of ocular discomfort after topical application to the eyes of human patients; format: in vivo
Protocol: as §1

[3] = WS-3 at 2 ppm to 5 ppm in the vehicle of Example 1, topical ocular
[4] = ophthalmic composition, ocular cooling
[5] = WS-23 at 10 ppm to 20 ppm in the vehicle of Example 1, topical ocular

## CC1=C(N2CCCC2)C(=O)OC1 [4-methyl-3-(1-pyrrolididinyl)-2[5H]-furanone]
mouth
  cooling power relative to menthol, in the mouth: thirty-five
skin
  cooling power relative to menthol, on the skin: over 500 times

## CCNC(=O)C1CC(C)CCC1C(C)C (centres unmarked) [WS-3, Cyclohexanecarboxamide, N-ethyl-5-methyl-2-(1-methylethyl)]
Eyes of human patients [1]; [3]
  ability to produce a cooling sensation: refreshing
Eyes of human patients [1]; [4]
  optimal concentration: 1 to 5 PPM
Eyes of human patients [2]; [3]
  ocular discomfort / tolerability: comfortable and well tolerated

## CNC(=O)C(C)(C(C)C)C(C)C [WS-23, N,2,3-Trimethyl-2-isopropylbutamide]
Eyes of human patients [1]; [5]
  ability to produce a cooling sensation: produced a cooling effect
Eyes of human patients [1]; [4]
  concentration at which most effective: 10 to 20 ppm
Eyes of human patients [2]; [5]
  ocular discomfort: comfortable
